For 19 compounds, IC50 and melting point results are on record in patent US8063028B2, “Heterocyclic antiviral compounds” (Roche Palo Alto LLC, priority 2007, dated 2011).

Each structure is given as a SMILES string. pIC50: −log10 of the molar value. Where a name gives a salt, the structure may show the parent alone.

The first series concerns the target HIV-1 RT (Human immunodeficiency virus type 1 group M subtype B, UniProt P04585). The series can be described thus: HIV reverse transcriptase assay, inhibitor IC50 determination. Particulars: purified recombinant enzyme, poly(rA)/oligo(dT)16 template-primer, 37° C. 30 min. It is filed as biochemical. The protocol: Reactions were initiated by adding 4 nM HIV-1 RT and after incubation at 37° C. for 30 min, they were stopped by the addition of 50 μl ice cold 20% TCA and allowed to precipitate at 4° C. for 30 min. The precipitates were collected by applying vacuum to the plate and sequentially washing with 3×200 μl of 10% TCA and 2×200 μl 70% ethanol. Finally, the plates were dried and radioactivity counted in a Packard TopCounter after the addition of 25 μl scintillation fluid per well. IC50's were calculated by plotting % inhibition versus log10 inhibitor concentrations. Representative IC50 data is depicted in TABLE 2.
As usually defined, the pIC50 is −log10 of the IC50, conventionally taken in molar units. As to `N#Cc1cc(Cl)cc(Oc2c(Cl)ccc(Cc3nn(COC(=O)CCC(=O)O)c4nnccc34)c2F)c1` [Compound I-5, Succinic acid mono-{3-[4-chloro-3-(3-chloro-5-cyano-phenoxy)-2-fluoro-benzyl]-pyrazolo[3,4-c]pyridazin-1-ylmethyl}ester], the pIC50 is 8.13.
Consider `N#Cc1cc(Cl)cc(Oc2c(Br)ccc(Cc3nn(COC(=O)CCC(=O)O)c4nnccc34)c2F)c1` [Compound I-3, Succinic acid mono-{3-[4-bromo-3-(3-chloro-5-cyano-phenoxy)-2-fluoro-benzyl]-pyrazolo[3,4-c]pyridazin-1-ylmethyl}ester], for which the pIC50 is 8.31.

Test system in another series: not given
Assay: not given
Conditions: not given
A word on the melting point: it is the temperature of the solid-liquid transition. Compound `N#Cc1cc(Cl)cc(Oc2c(Br)ccc(Cc3nn(COC(=O)CCCC(=O)O)c4nnccc34)c2F)c1` [Compound I-7, Pentanedioic acid mono-{3-[4-bromo-3-(3-chloro-5-cyano-phenoxy)-2-fluoro-benzyl]-pyrazolo[3,4-c]pyridazin-1-ylmethyl}ester] showed a melting point of 149.8 to 150.7 °C.
The compound `N#Cc1cc(Cl)cc(Oc2c(Cl)ccc(Cc3nn(COC(=O)CCC(=O)O)c4nnccc34)c2F)c1` [Compound I-5, Succinic acid mono-{3-[4-chloro-3-(3-chloro-5-cyano-phenoxy)-2-fluoro-benzyl]-pyrazolo[3,4-c]pyridazin-1-ylmethyl}ester] registered a melting point of 173 to 174.8 °C.
Regarding `N#Cc1cc(Cl)cc(Oc2c(Br)ccc(Cc3nn(COC(=O)CCC(=O)O)c4ncccc34)c2F)c1` [Compound I-1, Succinic acid mono-{3-[4-bromo-3-(3-chloro-5-cyano-phenoxy)-2-fluoro-benzyl]-pyrazolo[3,4-b]pyridin-1-ylmethyl}ester], the melting point lay in the range of 183 to 184 °C.
Compound `CC(=O)n1nc(Cc2ccc(Br)c(Oc3cc(Cl)cc(C#N)c3)c2F)c2ccnnc21` [Compound I-16, 3-[3-(1-Acetyl-1H-pyrazolo[3,4-c]pyridazin-3-ylmethyl)-6-bromo-2-fluoro-phenoxy]-5-chloro-benzonitrile] returned a melting point of 195.5 to 196.9 °C.
The compound `CC(=O)OCn1nc(Cc2ccc(Br)c(Oc3cc(Cl)cc(C#N)c3)c2F)c2ccnnc21` [Compound I-8, Acetic acid 3-[4-bromo-3-(3-chloro-5-cyano-phenoxy)-2-fluoro-benzyl]-pyrazolo[3,4-c]pyridazin-1-ylmethyl ester] displayed a melting point of 71.1 to 73 °C.
On to `CC(C)OC(=O)n1nc(Cc2ccc(Br)c(Oc3cc(Cl)cc(C#N)c3)c2F)c2ccnnc21` [Compound I-20, 3-[4-Bromo-3-(3-chloro-5-cyano-phenoxy)-2-fluoro-benzyl]-pyrazolo[3,4-c]pyridazine-1-carboxylic acid isopropyl ester], for which the melting point was in the range of 166.1 to 166.9 °C.
In turn, `CC(C)[C@H](N)C(=O)OCn1nc(Cc2ccc(Br)c(Oc3cc(Cl)cc(C#N)c3)c2F)c2ccnnc21.Cl` [Compound I-9, (S)-2-Amino-3-methyl-butyric acid 3-[4-bromo-3-(3-chloro-5-cyano-phenoxy)-2-fluoro-benzyl]-pyrazolo[3,4-c]pyridazin-1-ylmethyl ester] came in with a melting point of 155 to 156 °C.
With `N#Cc1cc(Cl)cc(Oc2c(Br)ccc(Cc3nn(COC(=O)CCC(=O)O)c4nnccc34)c2F)c1` (as salt: sodium) [Compound I-3, Succinic acid mono-{3-[4-bromo-3-(3-chloro-5-cyano-phenoxy)-2-fluoro-benzyl]-pyrazolo[3,4-c]pyridazin-1-ylmethyl}ester], the melting point lay in the range of 172.6 to 173.9 °C.
For `N#Cc1cc(C#N)cc(Oc2c(Br)ccc(Cc3nn(COC(=O)CCC(=O)O)c4nnccc34)c2F)c1` [Compound I-4, Succinic acid mono-{3-[4-bromo-3-(3,5-dicyano-phenoxy)-2-fluoro-benzyl]-pyrazolo[3,4-c]pyridazin-1-ylmethyl}ester], the melting point lay within 175.2 to 176.5 °C.
In the case of `N#Cc1cc(Cl)cc(Oc2c(Br)ccc(Cc3nn(C(=O)c4cccnc4)c4nnccc34)c2F)c1` [Compound I-17, 3-{6-Bromo-2-fluoro-3-[1-(pyridine-3-carbonyl)-1H-pyrazolo[3,4-c]pyridazin-3-ylmethyl]-phenoxy}-5-chloro-benzonitrile], the melting point fell in the range of 187.7 to 188.5 °C.
`N#Cc1cc(Cl)cc(Oc2c(Br)ccc(Cc3nn(COC(=O)COCC(=O)O)c4nnccc34)c2F)c1` [Compound I-10, {3-[4-Bromo-3-(3-chloro-5-cyano-phenoxy)-2-fluoro-benzyl]-pyrazolo[3,4-c]pyridazin-1-ylmethoxycarbonylmethoxy}-acetic acid] gave a melting point of 146 to 147 °C.
`CC(C)C(=O)n1nc(Cc2ccc(Br)c(Oc3cc(Cl)cc(C#N)c3)c2F)c2ccnnc21` [Compound I-21, 3-[6-Bromo-2-fluoro-3-(1-isobutyryl-1H-pyrazolo[3,4-c]pyridazin-3-ylmethyl)-phenoxy]-5-chloro-benzonitrile]: the melting point fell in the range of 157.7 to 159.3 °C.
Consider `CCOC(=O)n1nc(Cc2ccc(Br)c(Oc3cc(Cl)cc(C#N)c3)c2F)c2ccnnc21` [Compound I-11, 3-[4-Bromo-3-(3-chloro-5-cyano-phenoxy)-2-fluoro-benzyl]-pyrazolo[3,4-c]pyridazine-1-carboxylic acid ethyl ester], for which the melting point lay in the range of 139 to 140 °C.
`COC(=O)n1nc(Cc2ccc(Br)c(Oc3cc(Cl)cc(C#N)c3)c2F)c2ccnnc21` [Compound I-6, 3-[4-Bromo-3-(3-chloro-5-cyano-phenoxy)-2-fluoro-benzyl]-pyrazolo[3,4-c]pyridazine-1-carboxylic acid methyl ester] came in with a melting point of 164 to 165 °C.
In turn, `N#Cc1cc(C#N)cc(Oc2c(Cl)ccc(Cc3nn(COC(=O)CCC(=O)O)c4nnccc34)c2F)c1` [Compound I-12, Succinic acid mono-{3-[4-chloro-3-(3,5-dicyano-phenoxy)-2-fluoro-benzyl]-pyrazolo[3,4-c]pyridazin-1-ylmethyl}ester] had a melting point of 166.1 to 169.9 °C.
`CC(CN(C)C)OC(=O)n1nc(Cc2ccc(Br)c(Oc3cc(Cl)cc(C#N)c3)c2F)c2ccnnc21` (centres unmarked) (as salt: hydrochloride) [Compound I-13, 3-[4-Bromo-3-(3-chloro-5-cyano-phenoxy)-2-fluoro-benzyl]-pyrazolo[3,4-c]pyridazine-1-carboxylic acid 2-dimethylamino-1-methyl-ethyl ester] registered a melting point of 119 to 122 °C.
The compound `N#Cc1cc(Cl)cc(Oc2c(Cl)ccc(Cc3nn(COC(=O)CCCC(=O)O)c4nnccc34)c2F)c1` [Compound I-14, Pentanedioic acid mono-{3-[4-chloro-3-(3-chloro-5-cyano-phenoxy)-2-fluoro-benzyl]-pyrazolo[3,4-c]pyridazin-1-ylmethyl}ester] displayed a melting point of 176 to 178 °C.
With `N#Cc1cc(Cl)cc(Oc2c(Br)ccc(Cc3nn(COC(=O)CCCCC(=O)O)c4nnccc34)c2F)c1` [Compound I-15, Hexanedioic acid mono-{3-[4-bromo-3-(3-chloro-5-cyano-phenoxy)-2-fluoro-benzyl]-pyrazolo[3,4-c]pyridazin-1-ylmethyl}ester], the melting point lay within 159 to 160 °C.
